From patent US20230277553A1, “THERAPEUTIC COMPOSITION OF CURE-PRO COMPOUNDS FOR TARGETED DEGRADATION OF BET DOMAIN PROTEINS, AND METHODS OF MAKING AND USAGE” (CORNELL UNIVERSITY, priority 2020, published 2023)
“Also recorded” adds a separate entry of the source.

Assays:
Assay type in all cases: cell-based
BRD4 [1] = target: T1, BRD4 (Homo sapiens, UniProt O60885); assay: CURE-PRO-mediated BRD4 degradation, Western blot, HeLa cells; set-up: endogenous in cells; host or cells: HeLa; conditions: 24 h, Western blot
How it was run: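 HeLa cells treated 24 h with compounds in DMSO (1-10 μM, 10 μM or 100 μM each; paired monomers combined 1:1), optional 15-min pretreatment with pomalidomide, VHL298, Nutlin3a (10 μM) or MG-132/carfilzomib (1 μM). RIPA lysates, 10-20 μg protein immunoblotted for BRD4 with β-actin, ECL detection.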

BRD4 [2] = target: T1, BRD4; assay: CURE-PRO-mediated BRD4 degradation with VHL ligands, WES (ProteinSimple), MCF7 cells; set-up: endogenous in cells; conditions: MCF7, 10 μM each
Protocol: All cell lines were purchased from ATCC or DSMZ and grown at 37° C. with 5% CO2. Human HeLa cells were cultured in complete growth medium (Dulbecco's modified Eagle's medium (DMEM) supplemented with 10% FBS); MCF7 cells were cultured in complete growth medium (Dulbecco's modified Eagle's medium (DMEM) supplemented with 10% FBS and 0.01 mg/ml human recombinant insulin (Sigma Aldrich); Namalwa and MOLM-13 cells were cultured in complete growth medium (RPMI 1640 medium supplemented with 10% FBS); MV-4-11 were cultured in complete growth medium (Iscove's Modified Dulbecco's medium, supplemented with 10% FBS); HCT116 cells were cultured in complete growth medium (McCoy's 5a Medium supplemented with 10% FBS). For cellular degradation of BRD4 studies, cells were seeded in a 12-well plate at 70-80% confluency, allowed to attach overnight, and incubated with the indicated compounds for the indicated time. When indicated, a 15-minute pretreatment with 10 μM pomalidomide, 10 μM VHL298, 10 μM Nutlin3a, 1 μM MG-132 or 1 μM Carfilzomib was performed before the addition of CURE-PROs. For washout studies, after CURE-PRO treatment, media was aspirated and incubated with complete medium for the indicated time before lysis.
WES Simple analysis was performed on WES system (ProteinSimple-Biotechne) according to the manufacturer's instructions. Total protein concentrations of cell lysates were determined by the Pierce BCA kit (Thermo Fisher). 3 μL of 0.3 μg/μL of the protein lysate was loaded onto a 12- to 230-kDa WES assay plate (ProteinSimple) where 300 nL sample was withdrawn through a capillary, subjected to electrophoretic separation of proteins by size, and followed by the simultaneous, HRP-based detection of proteins using the Anti-Rabbit Detection Module (Proteinsimple: #DM-001). The electropherograms were checked then the automatic peak detection was manually corrected if it was required.
MCF7 cells (3×10^6) were treated for 4-24 hours continually (FIG. 72), or treated for 4h, washed and incubated for a further 4-24 h with the compounds solubilized in DMSO. Compounds were added at 10 μM each. Cells were washed, lysed, and clarified by centrifugation. The total protein concentration was quantified by the BCA method (ThermoFisher Sciences). Standardized protein samples were electrophoresed and imaged as described in the WES Proteinsimple section above. FIG. 69 depicts the CURE-PRO-mediated BRD4 degradation for the BRD-E50 monomer, and VHL ligand, 8305.
MCF7 cells (3×10^6) were treated for 24 hours with the compounds solubilized in DMSO. CURE-PRO monomers were added at 10 μM each and the proteasomal inhibitors at 1 μM. Standardized protein samples were electrophoresed and imaged as described in the WES Proteinsimple section above. FIGS. 73 and 75 depicts the dependence of the proteasome for CURE-PRO-mediated BRD4 degradation.
MCF7 cells (3×10^6) were treated for 24 hours with the compounds solubilized in DMSO. CURE-PRO monomers were added at 10 μM. FIG. 74 depicts the CURE-PRO-mediated BRD4 degradation for the BRD-E50 monomer, and VHL ligand, 8305 combined in a 1:1 ratio after 24 h.

BRD4 [3] = target: T1, BRD4; assay: CURE-PRO-mediated BRD4 degradation with MDM2 ligands, Western blot, HCT116 cells; set-up: endogenous in cells; conditions: for BRD4 degradation, in combination with MDM2 ligands 8310 and 8312 (Western blot): HCT116, 24 h, 1:1, 10 μM; for Selectivity of degradation within the BRD protein family, with MDM2 ligands: HCT116, Western blot, with 8310 / 8312
Source text: Anti-BRD4 (13440, 1:1,000 dilution for Western Blot and 1:25 dilution for ProteinSimple); Anti-BRD2 (5848 1:1,000 dilution for Western Blot and 1:25 dilution for ProteinSimple); β-Actin (3700, 1:2,000 dilution for Western Blot), β-Actin (4970, 1:50 dilution for ProteinSimple) anti-mouse IgG-HRP, and anti-rabbit IgG-HRP antibodies were purchased Cell Signaling Technology. Anti-GAPDH (600-401-A33, 1:100 dilution for ProteinSimple) was purchased from Rockland Immunochemicals, Inc. Anti-BRD3 (sc-81202, 1:200 dilution for Western Blot) was purchased from Santa Cruz Biotechnology.
HeLa, MCF7, or HCT116 cells (2.5-3×10^6) were treated for 24 hours with the indicated compounds solubilized in DMSO. The cells were washed in ice-cold PBS and were then lysed in RIPA lysis buffer (150 mM NaCl, 5 mM EDTA, 1% NP-40, 0.5% sodium deoxycholate, 0.1% SDS, 50 mM Tris, pH 8.0.) with Roche protease inhibitor complete cocktail and phosphatase inhibitors (10 mM sodium fluoride, 10 mM sodium pyrophosphate, 1 mM sodium orthovanadate and 20 mM β-glycerophosphate). The total protein concentrations were determined by Bradford Protein Assay and 10-20 μg of protein was loaded onto 4-15% Tris-Glycine gradient gels (Biorad). After standard gel electrophoresis, the separated proteins were transferred to PVDF membrane by wet transfer. The immunoblots were then blocked for 1 hour in 5% skim milk in TBST or 5% BSA in TBST, according to manufacturer's instructions, before an overnight incubation at 4° C. with indicated antibodies and membranes. Membranes were then incubated with the appropriate horseradish peroxidase-conjugated secondary antibodies (1:5,000 dilution) for 1 h at room temperature and the bands were visualized using the Clarity Max Western ECL Substrate (Biorad) and the ChemiDoc Imaging System (Biorad). Signal was detected with ECL Western Blotting Substrate (Pierce) and X-ray film processed with a Konica SRX-101 X-ray film processor or captured by Bio-Rad's Chemidoc Imaging system.
HCT116 cells (3×10^6) were treated for 24 hours with the compounds solubilized in DMSO. Compounds were added at 100 nM-10 μM each. Standardized protein samples were electrophoresed and imaged as described in the Immunoblotting section above. FIGS. 64 and 65 depict the concentration-dependence of CURE-PRO-mediated BRD2 and BRD3 degradation using MDM2 ligands.

**Q.** For `CCNC(=O)C[C@@H]1N=C(c2ccc(Cl)cc2)c2cc(OCCCCC(=O)Nc3cccc(B(O)O)c3)ccc2-n2c(C)nnc21` [BRD-E20, (3-(5-(((4S)-6-(4-chlorophenyl)-4-(2-(ethylamino)-2-oxoethyl)-1-methyl-4H-benzo[f][1,2,4]triazolo[4,3-a][1,4]diazepin-8-yl)oxy)pentanamido)phenyl)boronic acid], which “BRD4 degradation, co-treatment with CRBN ligand 8046” value (BRD4 [1]; 1:1 with 8046, 10 μM each) is on record?
**A.** causes degradation of BRD4; also recorded: Degradation is noted

**Q.** And the “BRD4 degradation, co-treatment with CRBN ligand 8066” value (BRD4 [1]; 1:1 with 8066, 10 μM each (BRD-E10: 10 and 100 μM))?
**A.** causes degradation of BRD4; also recorded: Degradation is noted

**Q.** And the “BRD4 degradation, with VHL ligand 8304 (WES)” value (BRD4 [2])?
**A.** failed to induce BRD4 degradation

**Q.** And the “BRD4 degradation, with VHL ligand 8305 (WES)” value (BRD4 [2]; 1:1 with 8305, 4-24 h, with washout where stated)?
**A.** caused BRD4 degradation; also recorded: marked BRD4 degradation

**Q.** For `CCNC(=O)C[C@@H]1N=C(c2ccc(Cl)cc2)c2cc(OCCNC(=O)c3cccc(O)c3O)ccc2-n2c(C)nnc21` [BRD-N25], which “BRD4 degradation, in combination with MDM2 ligands 8310 and 8312 (Western blot)” value (BRD4 [3]) is on record?
**A.** caused BRD4 degradation; also recorded: Degradation is evident

**Q.** What about the “Selectivity of degradation within the BRD protein family, with MDM2 ligands” value (BRD4 [3]) of the same compound?
**A.** some selectivity for BRD3 and BRD4 over BRD2 for 8310

**Q.** `CCNC(=O)C[C@@H]1N=C(c2ccc(Cl)cc2)c2cc(OCCOCCNC(=O)c3cccc(O)c3O)ccc2-n2c(C)nnc21` [BRD-N39, N-(2-(2-(((4S)-6-(4-chlorophenyl)-4-(2-(ethylamino)-2-oxoethyl)-1-methyl-4H-benzo[f][1,2,4]triazolo[4,3-a][1,4]diazepin-8-yl)oxy)ethoxy)ethyl)-2,3-dihydroxybenzamide] was tested. Which “BRD4 degradation, in combination with MDM2 ligands 8310 and 8312 (Western blot)” value (BRD4 [3]) did it give?
**A.** caused BRD4 degradation; also recorded: Degradation is evident

**Q.** And the “Selectivity of degradation within the BRD protein family, with MDM2 ligands” value (BRD4 [3])?
**A.** some selectivity for BRD4 over BRD2 and BRD3

**Q.** And the “BRD4 degradation, co-treatment with CRBN ligand 8048” value (BRD4 [1]; 1:1 with 8048, 1-10 μM each)?
**A.** causes degradation of BRD4; also recorded: Degradation is noted

**Q.** And the “BRD4 degradation, co-treatment with CRBN ligand 8049” value (BRD4 [1]; 1:1 with 8049, 1-10 μM each)?
**A.** no evidence of BRD4 degradation

**Q.** What about the “BRD4 degradation, BRD ligand alone” value (BRD4 [1]; BRD monomer alone) of the same compound?
**A.** no degradation of BRD4
